Results on 6 compounds are retold here after patent US6063804A, “Pyrrole compounds” (Adir et Compagnie, priority 1997, dated 2000).

Where two headings read alike, the source gives them in different places.

The target of one assay is T1, cyclooxygenase 1 (COX 1) (Mus musculus, UniProt P22437).
T1 construct: using mice peritoneal macrophages exposed to inflammatory stimuli (zymosan and LPS, respectively); endogenous in cells; host or cells: mouse peritoneal macrophages exposed to zymosan
T1 sequence (P22437 27-602): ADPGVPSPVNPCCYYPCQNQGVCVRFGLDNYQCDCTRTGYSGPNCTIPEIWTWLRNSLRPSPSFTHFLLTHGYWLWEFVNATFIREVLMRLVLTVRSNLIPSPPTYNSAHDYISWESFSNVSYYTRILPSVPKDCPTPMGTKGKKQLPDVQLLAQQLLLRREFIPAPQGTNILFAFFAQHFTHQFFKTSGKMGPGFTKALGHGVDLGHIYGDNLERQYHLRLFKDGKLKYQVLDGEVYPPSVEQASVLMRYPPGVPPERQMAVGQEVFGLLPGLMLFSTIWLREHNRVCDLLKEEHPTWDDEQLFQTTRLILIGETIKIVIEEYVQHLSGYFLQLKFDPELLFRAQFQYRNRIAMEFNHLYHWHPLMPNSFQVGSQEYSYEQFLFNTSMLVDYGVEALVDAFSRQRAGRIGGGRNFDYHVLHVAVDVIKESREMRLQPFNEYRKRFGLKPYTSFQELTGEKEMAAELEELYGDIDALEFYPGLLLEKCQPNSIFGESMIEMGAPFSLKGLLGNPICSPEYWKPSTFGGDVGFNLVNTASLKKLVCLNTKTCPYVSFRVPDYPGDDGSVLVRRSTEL
The assay can be described thus: Inhibitory activity in relation to COX 1 in peritoneal macrophages exposed to zymosan. The assay is classed as cell-based. To be noted: mice peritoneal macrophages. How it is done: (§1) The inhibitory activities of the compounds in relation to COX 1 and COX 2 were evaluated using mice peritoneal macrophages exposed to inflammatory stimuli (zymosan and LPS, respectively) in accordance with the method described by Tordjman el al., Biochimica et Biophysica Acta, 1995, 1256, 249-56.

A further assay has as its target T2, cyclooxygenase 2 (COX 2) (Mus musculus, UniProt Q05769).
T2 construct: using mice peritoneal macrophages exposed to inflammatory stimuli (zymosan and LPS, respectively); endogenous in cells; host or cells: mouse peritoneal macrophages exposed to LPS
T2 sequence (Q05769 18-604): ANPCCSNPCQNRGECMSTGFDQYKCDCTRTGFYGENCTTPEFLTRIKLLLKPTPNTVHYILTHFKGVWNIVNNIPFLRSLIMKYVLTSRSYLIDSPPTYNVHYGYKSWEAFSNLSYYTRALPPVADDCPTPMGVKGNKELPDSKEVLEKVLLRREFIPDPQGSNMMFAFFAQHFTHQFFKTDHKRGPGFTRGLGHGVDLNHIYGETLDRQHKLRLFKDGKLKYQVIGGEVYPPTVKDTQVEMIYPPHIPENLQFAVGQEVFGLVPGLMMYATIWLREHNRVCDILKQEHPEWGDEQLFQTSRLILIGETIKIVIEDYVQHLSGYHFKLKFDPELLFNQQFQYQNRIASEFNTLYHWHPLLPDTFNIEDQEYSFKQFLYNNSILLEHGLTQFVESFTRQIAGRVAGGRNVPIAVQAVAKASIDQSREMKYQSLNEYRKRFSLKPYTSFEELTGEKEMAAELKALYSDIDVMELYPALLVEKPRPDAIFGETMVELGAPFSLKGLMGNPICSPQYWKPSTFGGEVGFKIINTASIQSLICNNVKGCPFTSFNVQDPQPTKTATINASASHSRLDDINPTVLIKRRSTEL
The assay is described as follows: Inhibitory activity in relation to COX 2 in peritoneal macrophages exposed to LPS. It counts as cell-based. How it is done: as §1

For assay [1], the system named is IL1β production by THP1 line cells. The assay can be described thus: Inhibition of production of IL1β by THP1 line cells stimulated with LPS. The assay is classed as cell-based. To be noted: Homo sapiens, THP-1.
Assay [2] deals with production of prostaglandins. The assay can be described thus: Inhibition of prostaglandin production in the carrageenin air-pouch model. The assay is classed as in vivo. Conditions: oral, mouse. From the text:
In addition, those compounds exert an activity in animals especially by inhibiting the production of prostaglandins in the carrageenin air-pouch model in the mouse (Whittle, B. J. R. et al., Nature, 1980, 284, 271-273; Masferrer, J. L. el al., Proc. Natl. Acad. Sci. USA, 1994, 91, 3228-3232).

Assay [3] has as its system NO production in mouse peritoneal macrophages. The assay is described as follows: Inhibition of NO production in peritoneal macrophages stimulated with LPS. The assay is classed as cell-based. Conditions: Peritoneal macrophage.

For `Fc1ccc(-c2[nH]c(-c3ccc(F)cc3)c3c2CCCC3)cc1` [Example 1, 1,3-di-(4-fluorophenyl)-4,5,6,7-tetrahydro-2H-isoindole], the IC50 was 100 to 500 nM on cyclooxygenase 1 (COX 1) and 1 nM on cyclooxygenase 2 (COX 2) (mice peritoneal macrophages, read-out: IC50 cox 2). `c1ccc(-c2[nH]c(-c3ccccc3)c3c2CCCC3)cc1` [Example 2, 1,3-diphenyl-4,5,6,7-tetrahydro-2H-isoindole]: the half-maximal inhibitory concentration (IC50) at cyclooxygenase 1 (COX 1) is 100 to 500 nM; at cyclooxygenase 2 (COX 2) (read-out: IC50 cox 2, mice peritoneal macrophages), 1 nM. As for `c1ccc(-c2[nH]c(-c3ccccc3)c3c2CCC3)cc1` [Example 4, 1,3-diphenyl-2,4,5,6-tetrahydrocyclopenta[c]pyrrole], the IC50 on cyclooxygenase 1 (COX 1) fell in the range of 100 to 500 nM. In turn, `C1=CCc2c(-c3ccccc3)[nH]c(-c3ccccc3)c2C1` [Example 5, 1,3-diphenyl-4,7-dihydro-2H-isoindole] came in with a concentration for half-maximal inhibition (IC50) against cyclooxygenase 1 (COX 1) of 100 nM. `CC1Cc2c(-c3ccccc3)[nH]c(-c3ccccc3)c2CC1C` (stereo not shown) [Example 9, 1,3-diphenyl-5,6-dimethyl-4,5,6,7-tetrahydro-2H-isoindole] returned an IC50 in assay [1] of about 1000 nM. Consider `Fc1ccc(-c2[nH]c(-c3ccc(F)cc3)c3c2C2CCC3C2)cc1` [Example 19, 1,3-di-(4-fluorophenyl)-4,7-methano-4,5,6,7-tetrahydro-2H-isoindole], for which the figures for the 50% inhibitory concentration (IC50) (against cyclooxygenase 1 (COX 1); in assay [3]) were 100 nM and 2500 nM, respectively. The same compound yielded an ED50 in assay [2] of 2.5 mg/kg.
